Experimental data: patent US9499552B2, “Pyrazolo[1,5-A]pyrimidine derivative and use of anti-tumor thereof” (YANTAI UNIVERSITY, priority 2014, dated 2016)
Blank lines part the entries; values can stand above or below the compound they belong to.

What was measured:
[1] = test system: prostate cancer RM-1 transplanted tumor; assay: Mice prostate cancer RM-1 transplanted tumor model; assay type: in vivo; details: for Inhibition rate of tumor growth / Tumor weight / body weight of Animals, Final / body weight of Animals, Initial: male C57/BL6 mice, i.p., Docetaxel 10 mg/kg × 3, M110 50 mg/kg × 4
Description: Male C57/BL6 mice (18-22 g) were used. The experiment procedures are summarized as follows: mice who had prostate cancer RM-1 and grown well were sacrificed by cervical dislocation. Under sterile conditions, tumor mass growing well was stripped off, homogenized, diluted with physiological saline in 1:4. Each mouse was inoculated 0.2 mL of the tumor solution in the armpit and back (approximately 2*10^6 cells). On the next day, the animals were randomized into groups and the administration began. Compound M110 was administered at 50 mg/kg by intraperitoneal injection at 24 h after inoculation. The dosing volume was 0.1 mL/10 g. At the same time, docetaxel control group and solvent control group were set. As for the docetaxel group, the animals were administered by intraperitoneal injection at 10 mg/kg dose, the dosing volume was 0.1 mL/10 g. After continuous administration for 10 days, the animals were sacrificed by cervical dislocation, weighed the body and the tumor, respectively. Inhibition rate of tumor growth (%) was calculated, and the results were statistically processed.

TRPC6 channel [2] = molecular target: T1, TRPC6 channel (Mus musculus, UniProt Q61143); assay: Whole-cell patch clamp assay, TRPC6 activation; assay type: cell-based; details: for activation effect for TRPC6 channel (whole-cell patch clamp): HEK293 cells clamped at -100~+100 mV
T1 construct: expressed in transfected cells; host or cells: HEK293
T1 sequence (Q61143 1-930): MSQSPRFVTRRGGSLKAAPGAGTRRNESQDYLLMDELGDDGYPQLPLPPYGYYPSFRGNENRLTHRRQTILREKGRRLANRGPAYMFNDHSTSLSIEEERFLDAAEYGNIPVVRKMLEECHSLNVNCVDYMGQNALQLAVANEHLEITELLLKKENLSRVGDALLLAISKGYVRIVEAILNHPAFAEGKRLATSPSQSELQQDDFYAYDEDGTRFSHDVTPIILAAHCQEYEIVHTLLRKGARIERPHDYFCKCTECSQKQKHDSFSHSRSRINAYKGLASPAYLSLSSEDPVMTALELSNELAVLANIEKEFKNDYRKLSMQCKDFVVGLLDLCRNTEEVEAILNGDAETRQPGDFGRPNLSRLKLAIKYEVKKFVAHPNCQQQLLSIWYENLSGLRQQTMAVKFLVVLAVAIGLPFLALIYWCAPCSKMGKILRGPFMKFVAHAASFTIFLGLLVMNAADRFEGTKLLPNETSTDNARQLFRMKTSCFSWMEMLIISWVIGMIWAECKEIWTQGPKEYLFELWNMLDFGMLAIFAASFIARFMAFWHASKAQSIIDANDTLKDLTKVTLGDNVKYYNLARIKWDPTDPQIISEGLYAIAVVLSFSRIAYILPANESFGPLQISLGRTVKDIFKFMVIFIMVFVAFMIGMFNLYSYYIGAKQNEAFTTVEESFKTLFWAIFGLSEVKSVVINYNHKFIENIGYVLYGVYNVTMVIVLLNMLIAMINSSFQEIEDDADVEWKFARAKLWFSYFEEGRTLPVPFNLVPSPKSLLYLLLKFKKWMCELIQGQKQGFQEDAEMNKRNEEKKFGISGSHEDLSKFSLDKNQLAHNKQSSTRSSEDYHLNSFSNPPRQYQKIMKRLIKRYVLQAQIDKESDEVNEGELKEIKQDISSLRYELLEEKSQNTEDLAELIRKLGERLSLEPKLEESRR
Text: HEK293 cells were clamped at −100˜+100 mV in the whole-cell recording mode.

mice TRPC6 = molecular target: T2, mice TRPC6 (Mus musculus, UniProt Q61143); assay: Fluorescence calcium flux (Fluo4) detection of TRPC6 activation; assay type: cell-based; details: HEK293 cells expressing mice TRPC6
T2 construct: expressed in transfected cells; host or cells: HEK293
T2 sequence (Q61143 1-930): T1 sequence (Q61143 1-930)
Description: Similar fluorescence calcium flux was used to detect the effect of M085 on [Ca^2+] concentration in HEK293 cells expressing mice TRPC6. The cells were stained using Ca^2+ indicator Fluo4. At 30 s, 0.1 μM, 0.4 μM, 1.1 μM, 3.3 μM, 10 μM, 30 μM of M085 were added. […] Wherein, M086 was subjected to fluorescent calcium flux detection and fluorescent membrane potential detection, respectively.

[3] = test system: HEK293 cells which were not transfected with TRPC6 ion channels; assay: Fluorescent membrane potential detection in non-transfected control cells; assay type: cell-based; details: M085 0.1-30 μM
TRPC6 ion channels = molecular target: T3, TRPC6 ion channels (Mus musculus, UniProt Q61143); assay: Fluorescent membrane potential (FMP) detection of TRPC6 activation; assay type: cell-based; details: M085 at 0.4 μM~30 μM; HEK293 cells permanently transfected with TRPC6
T3 construct: expressed in transfected cells; host or cells: HEK293 co-expressing M5 muscarinic receptor
T3 sequence (Q61143 1-930): T1 sequence (Q61143 1-930)
Description: Pyrazolopyrimidines and their derivatives activated TRPC6 ion channels (FIG. 1). In HEK293 cells permanently transfected with TRPC6 ion channels, M085 was used as activator to detect the fluorescent membrane potential. Firstly, cells were stained with FLIPR membrane potential dyes (FMP). At 30 s, 0.1 μM, 0.4 μM, 1.1 μM, 3.3 μM, 10 μM, 30 μM of M085 were added, respectively.

TRPC6 channel [4] = molecular target: T1, TRPC6 channel; assay: Whole-cell patch clamp assay, TRPC6 inhibition (carbachol-activated); assay type: cell-based; details: for inhibition of TRPC6 channel (whole-cell patch clamp): HEK293 cells clamped at -100~+100 mV
Description: M107 is representative (FIG. 3B, C). HEK293 cells were clamped at −100˜+100 mV in whole-cell recording mode. TRPC6 ion channels activated by carbachol (CCh, 30 μM) was inhibited by M107 (20 μM). At −100˜+100 mV, 20 μM of M107 provided 60% and 20% of inhibition rate for CCh (n=5).

[5] = test system: KB human oral epithelium carcinoma cell line; assay: MTT cytotoxic activity, KB; assay type: cell-based; details: 72 h, read-out: IC50 cytotoxic activity in vitro
Description: (§1) After the cells in logarithmic growth phase were digested with 0.25% trypsin-EDTA, a cell suspension at a certain concentration was prepared. Depending on cell growth rate, they were inoculated in 96-well plates at 1000-2000 cells/well. To each well 100 μL of the cell suspension was added. After 24 h, fresh medium containing various concentrations of the compounds or the corresponding solvent were added at 100 μL per well (DMSO final concentration <0.1%). 5 to 7 dose groups were arranged for each test compound. Each group comprised at least 3 parallel wells. After further culturing at 37° C. for 72 h, the supernatant was discarded. 100 μL of fresh serum-free medium containing 0.5 mg/mL MTT was added to each well, further cultured for 2 h. After the supernatant was discarded, to each well was added 200 μL DMSO to dissolve MTT formazan precipitate. After mixing homogeneously by a microoscillator, optical density (OD) was measured at 450 nm of reference wavelength, and at 570 nm of detection wavelength by a Microplate reader. The tumor cells treated by the solvent control was used as the control group. The inhibition rate of tumor cells for the compounds were calculated by the following equation and IC50 was calculated by the half of inhibition equation: […]

[6] = test system: RM-1 mouse prostate cancer cell line; assay: MTT cytotoxic activity, RM-1; assay type: cell-based; details: RM-1, MTT, 72 h; read-out: IC50 cytotoxic activity in vitro
Description: as §1

[7] = test system: Lncap human prostate cancer cell line; assay: MTT cytotoxic activity, Lncap; assay type: cell-based; details: 72 h, read-out: IC50 cytotoxic activity in vitro
Description: as §1

[8] = test system: Pc3 human prostate cancer cell line; assay: MTT cytotoxic activity, Pc3; assay type: cell-based; details: 72 h, read-out: IC50 cytotoxic activity in vitro
Description: as §1

[9] = test system: MCF7 human breast cancer cell line; assay: MTT cytotoxic activity, MCF7; assay type: cell-based; details: 72 h, read-out: IC50 cytotoxic activity in vitro
Description: as §1

[10] = test system: Du145 human prostate cancer cell line; assay: MTT cytotoxic activity, Du145; assay type: cell-based; details: 72 h, read-out: IC50 cytotoxic activity in vitro
Description: as §1

[11] = test system: H460 human lung cancer cell line; assay: MTT cytotoxic activity, H460; assay type: cell-based; details: 72 h, read-out: IC50 cytotoxic activity in vitro
Description: as §1

SMILES: CC(=O)O[C@@]12CO[C@@H]1C[C@H](O)[C@@]1(C)C(=O)[C@H](O)C3=C(C)[C@@H](OC(=O)[C@H](O)[C@@H](NC(=O)OC(C)(C)C)c4ccccc4)C[C@@](O)([C@@H](OC(=O)c4ccccc4)[C@H]21)C3(C)C [Docetaxel, docetaxel, reference compound]
Inhibition rate of tumor growth [1]: 32%
Tumor weight [1]: 1.77 ± 0.61 g
body weight of Animals, Final [1]: 18.43 ± 2.17 g
body weight of Animals, Initial [1]: 20.00 ± 1.07 g

activation effect for TRPC6 channel (whole-cell patch clamp) (TRPC6 channel [2]): have activation effect
activating effect for TRPC6 ion channel (fluorescence calcium flux) (mice TRPC6): exhibited activating effect
SMILES: Cc1nn2c(O)cc(C3CCN(C(=O)OCc4ccccc4)CC3)nc2c1-c1ccc(Cl)cc1 [Compound M091]

activation effect for TRPC6 channel (whole-cell patch clamp) (TRPC6 channel [2]): have activation effect
activating effect for TRPC6 ion channel (fluorescence calcium flux) (mice TRPC6): exhibited activating effect
SMILES: CCOC(=O)N1CCC(c2cc(O)n3nc(C)c(-c4ccc(C(F)(F)F)cc4)c3n2)CC1 [Compound M092]

activation effect for TRPC6 channel (whole-cell patch clamp) (TRPC6 channel [2]): have activation effect
EC50 (TRPC6 channel [2]; HEK293 cells, concentration response 0.04-10 μM, n=5-7): 2.5 µM
membrane depolarization (FMP fluorescence) (TRPC6 ion channels): increase of membrane depolarization
activating effect for TRPC6 ion channel (fluorescence calcium flux) (mice TRPC6): exhibited activating effect
intracellular [Ca2+] (mice TRPC6; M085 at 3.3 μM~30 μM, Fluo4): significantly increased
SMILES: CCOC(=O)N1CCC(c2cc(O)n3nc(C)c(-c4ccc(F)cc4)c3n2)CC1 [Compound M085]
fluorescent change (FMP) [3]: no significantly fluorescent change

activation effect for TRPC6 channel (whole-cell patch clamp) (TRPC6 channel [2]): have activation effect
activating effect for TRPC6 ion channel (fluorescence calcium flux) (mice TRPC6): exhibited activating effect
SMILES: Cc1nn2c(O)cc(C3CCN(C(=O)OCc4ccccc4)CC3)nc2c1-c1ccc(F)cc1 [Compound M086]

inhibition rate for CCh-activated TRPC6 current, first value (TRPC6 channel [4]; 20 μM compound, CCh 30 μM, at -100~+100 mV (first printed, -100 mV), n=5): 60%
inhibition rate for CCh-activated TRPC6 current, second value (TRPC6 channel [4]; 20 μM compound, CCh 30 μM, at -100~+100 mV (second printed, +100 mV), n=5): 20%
inhibition of TRPC6 channel (whole-cell patch clamp) (TRPC6 channel [4]): inhibited TRPC6 channel
SMILES: Cc1nn2c(O)cc(C3CCN(C(=O)OC(C)(C)C)CC3)nc2c1-c1ccc(F)cc1 [Compound M107]

inhibition of TRPC6 channel (whole-cell patch clamp) (TRPC6 channel [4]): inhibited TRPC6 channel
SMILES: CCOC(=O)N1CCC(C)(c2cc(O)n3nc(C)c(-c4ccc(F)cc4)c3n2)CC1 [Compound M110]
IC50 [5]: 9.47 µM
IC50 [6]: 25.6 µM
Inhibition rate of tumor growth [1]: 23%
Tumor weight [1]: 2.0 ± 0.73 g
body weight of Animals, Final [1]: 21.33 ± 1.51 g
body weight of Animals, Initial [1]: 20.00 ± 0.76 g
pharmacological activity in vivo on RM-1 transplanted tumor growth ([1]; mice): inhibit growth of prostate cancer RM-1 transplanted tumor
IC50 [7]: 4.33 µM
IC50 [8]: 30.8 µM
IC50 [9]: 12.1 µM
IC50 [10]: > 100 µM
IC50 [11]: 21.9 µM
